Molecules are shown by their SMILES.

The target in the test is T1, CD73 activity in MDA-MB-231-GFP cells (Homo sapiens, UniProt P21589).
T1 construct: endogenous in cells; host or cells: MDA-MB-231-GFP cells
T1 sequence (P21589 27-549): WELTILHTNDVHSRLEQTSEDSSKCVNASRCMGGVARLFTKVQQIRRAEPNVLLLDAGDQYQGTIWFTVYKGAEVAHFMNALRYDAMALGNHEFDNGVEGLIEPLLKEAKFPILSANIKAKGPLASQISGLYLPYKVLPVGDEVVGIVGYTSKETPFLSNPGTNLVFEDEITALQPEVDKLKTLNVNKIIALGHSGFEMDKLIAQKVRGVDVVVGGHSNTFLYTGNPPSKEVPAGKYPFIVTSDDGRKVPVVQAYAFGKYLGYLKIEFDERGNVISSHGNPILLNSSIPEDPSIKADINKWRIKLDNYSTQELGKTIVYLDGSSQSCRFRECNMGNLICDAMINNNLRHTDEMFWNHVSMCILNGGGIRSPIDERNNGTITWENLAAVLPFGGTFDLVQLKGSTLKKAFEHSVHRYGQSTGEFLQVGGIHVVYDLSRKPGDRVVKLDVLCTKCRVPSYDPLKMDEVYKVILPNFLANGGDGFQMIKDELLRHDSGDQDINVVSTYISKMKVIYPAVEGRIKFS
Description: MDA-MB-231 Cell Based CD73 Activity Assay (DMEM). The settings on record: 3000 cells per well, DMEM medium with 10% human plasma, overnight compound treatment, AMP 200 uM.
In general, EC50 refers to the concentration that produces a half-maximal response. A lower EC50 goes with a more potent agent. Molecule `O=c1[nH]cc(-c2cc([C@H]3C[C@@H]3c3ccc(OC(F)(F)F)cc3)c3nccn3n2)c(=O)[nH]1` (racemic) [Example 359, 5-(8-((1S,2S)-2-(4-(trifluoromethoxy)phenyl)cyclopropyl)imidazo[1,2-b]pyridazin-6-yl)pyrimidine-2,4(1H,3H)-dione] yielded a half-maximal effective concentration (EC50) of 22 nM.
Take `O=c1[nH]cc(-c2cc([C@H]3C[C@@H]3c3ccc(OCC(F)(F)F)cn3)c3nccn3n2)c(=O)[nH]1` (racemic) [Example 363, 5-(8-((1S,2S)-2-(5-(2,2,2-trifluoroethoxy)pyridin-2-yl)cyclopropyl)imidazo[1,2-b]pyridazin-6-yl)pyrimidine-2,4(1H,3H)-dione]: the EC50 was 5.5 nM.
In turn, `O=c1[nH]cc(-c2cc([C@H]3C[C@@H]3c3ncc(C(F)(F)F)s3)c3nccn3n2)c(=O)[nH]1` (racemic) [Example 364, 5-(8-((1S,2S)-2-(5-(trifluoromethyl)thiazol-2-yl)cyclopropyl)imidazo[1,2-b]pyridazin-6-yl)pyrimidine-2,4(1H,3H)-dione] registered an EC50 of 34 nM.
In the case of `O=c1[nH]cc(-c2cc([C@H]3C[C@@H]3c3cnn(C(F)(F)F)c3)c3nccn3n2)c(=O)[nH]1` (racemic) [Example 366, 5-(8-((1S,2S)-2-(1-(trifluoromethyl)-1H-pyrazol-4-yl)cyclopropyl)imidazo[1,2-b]pyridazin-6-yl)pyrimidine-2,4(1H,3H)-dione], the EC50 was determined as 16.4 nM.
`O=c1[nH]cc(-c2cc([C@H]3C[C@@H]3c3cnn(C(F)F)c3)c3nccn3n2)c(=O)[nH]1` (racemic) [Example 368, 5-(8-((2S,2S)-2-(1-(difluoromethyl)-1H-pyrazol-4-yl)cyclopropyl)imidazo[1,2-b]pyridazin-6-yl)pyrimidine-2,4(1H,3H)-dione]: the midpoint of the response, the EC50, lay at 20.3 nM.
For `O=c1[nH]cc(-c2cc([C@H]3C[C@@H]3c3ccn(C(F)F)n3)c3nccn3n2)c(=O)[nH]1` (racemic) [Example 369, 5-(8-((1S,2S)-2-(1-(difluoromethyl)-1H-pyrazol-3-yl)cyclopropyl)imidazo[1,2-b]pyridazin-6-yl)pyrimidine-2,4(1H,3H)-dione], a half-maximal effect (EC50) was put at 27.5 nM.
`O=c1[nH]cc(-c2cc([C@H]3C[C@@H]3c3cnn(C(F)F)c3)c3ncc(F)n3n2)c(=O)[nH]1` (racemic) [Example 370, 5-(8-((1S,2S)-2-(1-(difluoromethyl)-1H-pyrazol-4-yl)cyclopropyl)-3-fluoroimidazo[1,2-b]pyridazin-6-yl)pyrimidine-2,4(1H,3H)-dione] had an EC50 of 15.7 nM.
`O=c1[nH]cc(-c2cc([C@H]3C[C@@H]3c3ccc(OC(F)(F)F)cn3)c3nccn3n2)c(=O)[nH]1` (racemic) [Example 372, 5-(8-((1S,2S)-2-(5-(trifluoromethoxy)pyridin-2-yl)cyclopropyl)imidazo[1,2-b]pyridazin-6-yl)pyrimidine-2,4(1H,3H)-dione] returned an EC50 of 9.23 nM.
Then `O=c1[nH]cc(-c2cc([C@H]3C[C@@H]3c3ccc(OC(F)(F)F)cn3)c3ncc(F)n3n2)c(=O)[nH]1` (racemic) [Example 374, 5-(3-fluoro-8-((2S,2S)-2-(5-(trifluoromethoxy)pyridin-2-yl)cyclopropyl)imidazo[1,2-b]pyridazin-6-yl)pyrimidine-2,4(1H,3H)-dione], with 13.8 nM.
`O=c1[nH]cc(-c2cc([C@H]3C[C@@H]3c3ccc(OC(F)(F)F)nc3)c3nccn3n2)c(=O)[nH]1` (racemic) [Example 376, 5-(8-((2S,2S)-2-(6-(trifluoromethoxy)pyridin-3-yl)cyclopropyl)imidazo[1,2-b]pyridazin-6-yl)pyrimidine-2,4(1H,3H)-dione] displayed an EC50 of 19.3 nM.
With `O=c1[nH]cc(-c2cc([C@H]3C[C@@H]3c3ncc(C(F)(F)F)cn3)c3nccn3n2)c(=O)[nH]1` (racemic) [Example 377, 5-(8-((1S,2S)-2-(5-(trifluoromethyl)pyrimidin-2-yl)cyclopropyl)imidazo[1,2-b]pyridazin-6-yl)pyrimidine-2,4(1H,3H)-dione], the EC50 came out at 22.6 nM.
To `O=c1[nH]cc(-c2cc([C@H]3C[C@@H]3c3ncc(C(F)(F)F)cn3)c3ncc(F)n3n2)c(=O)[nH]1` (racemic) [Example 378, 5-(3-fluoro-8-((1S,2S)-2-(5-(trifluoromethyl)pyrimidin-2-yl)cyclopropyl)imidazo[1,2-b]pyridazin-6-yl)pyrimidine-2,4(1H,3H)-dione] belongs 18.9 nM; to `N#Cc1ccc([C@H]2C[C@@H]2c2cc(-c3c[nH]c(=O)[nH]c3=O)nn3ccnc23)c(F)c1` (racemic) [Example 407, 4-((2S,2S)-2-(6-(2,4-dioxo-1,2,3,4-tetrahydropyrimidin-5-yl)imidazo[1,2-b]pyridazin-8-yl)cyclopropyl)-3-fluorobenzonitrile], 14.7 nM; to `N#Cc1cccc([C@H]2C[C@@H]2c2cc(-c3c[nH]c(=O)[nH]c3=O)nn3ccnc23)c1F` (racemic) [Example 408, 3-((1S,2S)-2-(6-(2,4-dioxo-1,2,3,4-tetrahydropyrimidin-5-yl)imidazo[1,2-b]pyridazin-8-yl)cyclopropyl)-2-fluorobenzonitrile], 7.44 nM.
In turn, `N#Cc1ccc([C@H]2C[C@@H]2c2cc(-c3c[nH]c(=O)[nH]c3=O)nn3ccnc23)cc1C(F)(F)F` (racemic) [Example 411, 4-((1S,2S)-2-(6-(2,4-dioxo-1,2,3,4-tetrahydropyrimidin-5-yl)imidazo[1,2-b]pyridazin-8-yl)cyclopropyl)-2-(trifluoromethyl)benzonitrile] registered a concentration for a half-maximal effect (EC50) of 42.6 nM.
Regarding `N#Cc1cc([C@H]2C[C@@H]2c2cc(-c3c[nH]c(=O)[nH]c3=O)nn3ccnc23)ccc1C(F)(F)F` (racemic) [Example 412, 5-((2S,2S)-2-(6-(2,4-dioxo-1,2,3,4-tetrahydropyrimidin-5-yl)imidazo[1,2-b]pyridazin-8-yl)cyclopropyl)-2-(trifluoromethyl)benzonitrile], the EC50 is 38.3 nM.
On to `N#Cc1ccc([C@H]2C[C@@H]2c2cc(-c3c[nH]c(=O)[nH]c3=O)nn3ccnc23)cc1OC(F)(F)F` (racemic) [Example 413, 4-((2S,2S)-2-(6-(2,4-dioxo-1,2,3,4-tetrahydropyrimidin-5-yl)imidazo[1,2-b]pyridazin-8-yl)cyclopropyl)-2-(trifluoromethoxy)benzonitrile], for which the EC50 was determined as 34.6 nM.
The molecule `N#Cc1cc([C@H]2C[C@@H]2c2cc(-c3c[nH]c(=O)[nH]c3=O)nn3ccnc23)ccc1OC(F)(F)F` (racemic) [Example 414, 5-((2S,2S)-2-(6-(2,4-dioxo-1,2,3,4-tetrahydropyrimidin-5-yl)imidazo[1,2-b]pyridazin-8-yl)cyclopropyl)-2-(trifluoromethoxy)benzonitrile] displayed a concentration giving a half-maximal response (EC50) of 43.8 nM.
Take `O=c1[nH]cc(-c2cc(N3CC(Oc4ccc(C(F)(F)F)cn4)C(F)(F)C3)c3ncnn3n2)c(=O)[nH]1` (racemic) [Example 432, 5-(8-(3,3-difluoro-4-((5-(trifluoromethyl)pyridin-2-yl)oxy)pyrrolidin-1-yl)-[1,2,4]triazolo[1,5-b]pyridazin-6-yl)pyrimidine-2,4(1H,3H)-dione]: the EC50 was 2.58 nM.
`O=c1[nH]cc(-c2cc(N3CCC(CC(F)(F)F)C3)c3nccn3n2)c(=O)[nH]1` (racemic) [Example 452, 5-(8-(3-(2,2,2-trifluoroethyl)pyrrolidin-1-yl)imidazo[1,2-b]pyridazin-6-yl)pyrimidine-2,4(1H,3H)-dione] displayed an EC50 of 94.8 nM.
Molecule `O=c1[nH]cc(-c2cc(N3CCC(CC(F)F)C3)c3nccn3n2)c(=O)[nH]1` (racemic) [Example 453, 5-(8-(3-(2,2-difluoroethyl)pyrrolidin-1-yl)imidazo[1,2-b]pyridazin-6-yl)pyrimidine-2,4(1H,3H)-dione] displayed an EC50 of 112 nM.
In turn, `O=c1[nH]cc(-c2cc([C@H]3C[C@@H]3c3nc4ccccc4[nH]3)c3nccn3n2)c(=O)[nH]1` (racemic) [Example 461, 5-(8-((1S,2S)-2-(1H-benzo[d]imidazol-2-yl)cyclopropyl)imidazo[1,2-b]pyridazin-6-yl)pyrimidine-2,4(1H,3H)-dione] gave an EC50 of 11.6 nM.
In turn, `O=c1[nH]cc(-c2cc([C@H]3C[C@@H]3c3ccc(F)c(F)c3F)c3nccn3n2)c(=O)[nH]1` (racemic) [Example 464, 5-(8-((2S,2S)-2-(2,3,4-trifluorophenyl)cyclopropyl)imidazo[1,2-b]pyridazin-6-yl)pyrimidine-2,4(1H,3H)-dione] came in with an EC50 of 16.2 nM.
To `N#Cc1ccc(F)c([C@H]2C[C@@H]2c2cc(-c3c[nH]c(=O)[nH]c3=O)nn3ccnc23)c1` (racemic) [Example 466, 3-((2S,2S)-2-(6-(2,4-dioxo-1,2,3,4-tetrahydropyrimidin-5-yl)imidazo[1,2-b]pyridazin-8-yl)cyclopropyl)-4-fluorobenzonitrile] belongs 20 nM; to `O=c1[nH]cc(-c2cc([C@H]3C[C@@H]3c3c(F)ccc(F)c3F)c3nccn3n2)c(=O)[nH]1` (racemic) [Example 468, 5-(8-((2S,2S)-2-(2,3,6-trifluorophenyl)cyclopropyl)imidazo[1,2-b]pyridazin-6-yl)pyrimidine-2,4(1H,3H)-dione], 13.3 nM.

Source of the values: patent US12110294B2, “CD73 compounds” (Gilead Sciences, Inc., priority 2020, dated 2024).
